Reference: patent US12679878B2, “CRF2 receptor agonists and their use in therapy” (SANOFI, priority 2020, dated 2026)
Read-outs that look alike come from different tables or passages of the source. Values belong to the compound of their own block, whether it stands above or below them. Starred links: 1 amine or outer side, 2 acyl side, 3 side chain; linkers in the order of their positions; H or OH if unused. Non-standard residues stand in square brackets, D forms with d. Residues, ends and D or L forms follow the SMILES beside them. Groups on a side chain read outwards from the residue. *: point of attachment. C20 diacid = O=C(O)CCCCCCCCCCCCCCCCCCC(=O)*; C18 diacid = O=C(O)CCCCCCCCCCCCCCCCC(=O)*; C16 diacid = O=C(O)CCCCCCCCCCCCCCC(=O)*; γGlu = O=C(O)[C@H](CCC(=O)[*:2])N[*:1]; Palmitoyl = CCCCCCCCCCCCCCCC(=O)*; AEEA = NCCOCCOCC(=O)O; Aib = CC(C)(N)C(=O)O

How the values were obtained:
CRF1R receptor = target: T1, CRF1R receptor (Homo sapiens, UniProt P34998); test: cAMP activity at anti-target CRF1R, CHO-K1 cell line clone 2 (Example 19.10); type: cell-based; settings: 100% = Sauvagine at 100 nM; CRF1R CHO-K1 clone 2
T1 construct: host or cells: CHO-K1 clone 2
T1 sequence (P34998 24-415): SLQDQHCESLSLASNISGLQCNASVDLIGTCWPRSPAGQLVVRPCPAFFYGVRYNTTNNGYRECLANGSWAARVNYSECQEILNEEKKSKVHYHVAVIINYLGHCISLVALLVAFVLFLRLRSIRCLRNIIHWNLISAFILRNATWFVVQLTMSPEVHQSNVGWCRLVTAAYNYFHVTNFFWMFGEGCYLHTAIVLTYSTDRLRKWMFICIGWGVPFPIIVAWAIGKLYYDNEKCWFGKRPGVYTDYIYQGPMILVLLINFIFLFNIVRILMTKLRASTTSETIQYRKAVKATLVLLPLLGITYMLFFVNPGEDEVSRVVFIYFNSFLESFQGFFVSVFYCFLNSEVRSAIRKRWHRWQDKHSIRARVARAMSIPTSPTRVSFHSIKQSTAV
Method: The CRF1R-overexpression CHO-K1 cell line clone 2 was purchased from PerkinElmer.
Cells were grown in a 10 cm dish at 37° C./5% CO2 in medium (F12 (Hams)/10% FBS/400 μg/ml G418) to near confluence. At that stage, cells were harvested, resuspended to 10 million/mL in culture medium without G418 and with 10% DMSO. 1 mL vial aliquots were slowly frozen to -80° C. in isopropanol and then transferred in liquid nitrogen for storage. These vials were used to run the experiment following the procedure reported 10 in the previous paragraph, except for the compound used in the control well to define the 100% activation (Sauvagine at 100 nM)

human CRF2α receptor = target: T2, human CRF2α receptor (Homo sapiens, UniProt Q13324); test: cAMP agonism at human CRF2 α receptor in TeloHEAC cells (Example 7); type: cell-based; settings: cAMP HTRF, TeloHEAC cells stably expressing human CRF2 α
T2 construct: expressed in transfected cells; host or cells: TeloHEAC
T2 sequence (Q13324 1-411): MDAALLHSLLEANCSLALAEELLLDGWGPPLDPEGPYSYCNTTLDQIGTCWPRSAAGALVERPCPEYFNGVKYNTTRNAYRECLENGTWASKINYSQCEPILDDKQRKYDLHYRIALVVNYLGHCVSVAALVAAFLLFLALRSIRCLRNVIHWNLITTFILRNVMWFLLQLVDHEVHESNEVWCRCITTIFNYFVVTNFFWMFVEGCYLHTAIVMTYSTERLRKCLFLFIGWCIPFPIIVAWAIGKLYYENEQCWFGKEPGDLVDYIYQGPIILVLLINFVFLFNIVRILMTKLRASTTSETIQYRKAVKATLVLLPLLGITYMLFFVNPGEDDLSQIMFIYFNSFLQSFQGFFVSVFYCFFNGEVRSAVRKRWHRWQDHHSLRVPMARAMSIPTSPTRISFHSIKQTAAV
How it was run: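 Thawed frozen stably transfected cells in HBSS/20 mM HEPES (0% or 0.1% HSA) plus 2 mM IBMX were exposed to compound at 2000 cells/well for 30 min at room temperature. Intracellular cAMP was read by HTRF (665/620 nm ratio) after 1 h lysis; EC50 was derived with 1000 nM urocortin 2 set as 100%.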

[1] = 0% HSA, read-out: EC50 [nM], 0% HSA
[2] = 0.1% HSA, read-out: EC50 [nM], 0.1% HSA

SMILES: CC[C@H](C)[C@H](N)C(=O)N[C@H](C(=O)N[C@@H](CC(C)C)C(=O)N[C@@H](CO)C(=O)N[C@@H](CC(C)C)C(=O)N[C@@H](CC(=O)O)C(=O)N[C@@H](C(=O)N1CCC[C@H]1C(=O)N[C@H](C(=O)N[C@@H](CCCCN)C(=O)N[C@@H](CC(C)C)C(=O)N[C@@H](CCCCNC(=O)CC[C@H](NC(=O)CCCCCCCCCCCCCCC(=O)O)C(=O)O)C(=O)N[C@@H](CCC(N)=O)C(=O)N[C@@H](CCCCN)C(=O)N[C@@H](CC(C)C)C(=O)N[C@@H](CC(C)C)C(=O)N[C@@H](CCCCN)C(=O)N[C@@H](CCC(N)=O)C(=O)N[C@@H](CCC(=O)O)C(=O)N[C@@H](CCCNC(=N)N)C(=O)N[C@@H](CCC(N)=O)C(=O)N[C@@H](CCCNC(=N)N)C(=O)N[C@@H](CCCCN)C(=O)N[C@@H](CCC(=O)O)C(=O)N[C@@H](CCCNC(=N)N)C(=O)N[C@@H](CCC(=O)O)C(=O)N[C@@H](CCC(N)=O)C(=O)N[C@@H](C)C(=O)N[C@@H](CCC(=O)O)C(=O)N[C@@H](CCCCN)C(=O)N[C@@H](CC(N)=O)C(=O)N[C@H](C(=O)N[C@@H](CCCNC(=N)N)C(=O)N[C@H](C(=O)N[C@@H](CC(C)C)C(=O)N[C@@H](CCC(=O)O)C(=O)N[C@@H](CCCNC(=N)N)C(=O)N[C@H](C(N)=O)C(C)C)[C@@H](C)CC)C(C)C)[C@@H](C)O)C(C)C)C(C)C [SEQ ID NO: 222] (H-IVLSLD[dV]PTKLK([γGlu-C16 diacid])QKLLKQERQRKEREQAEKNVRILERV-NH2; N-terminus assumed)
Emax (CRF1R receptor): 6.2%

SMILES: CCCCCCCCCCCCCCCC(=O)N[C@@H](CCC(=O)NCCCC[C@H](NC(=O)[C@H](CC(C)C)NC(=O)[C@H](CCCCN)NC(=O)[C@@H](NC(=O)[C@@H]1CCCN1C(=O)[C@H](NC(=O)[C@H](CC(=O)O)NC(=O)[C@H](CC(C)C)NC(=O)[C@H](CO)NC(=O)[C@H](CC(C)C)NC(=O)[C@@H](NC(=O)[C@@H](N)[C@@H](C)CC)C(C)C)C(C)C)[C@@H](C)O)C(=O)N[C@@H](CCC(N)=O)C(=O)N[C@@H](CCCCN)C(=O)N[C@@H](CC(C)C)C(=O)N[C@@H](CC(C)C)C(=O)N[C@@H](CCCCN)C(=O)N[C@@H](CCC(N)=O)C(=O)N[C@@H](CCC(=O)O)C(=O)N[C@@H](CCCNC(=N)N)C(=O)N[C@@H](CCC(N)=O)C(=O)N[C@@H](CCCNC(=N)N)C(=O)N[C@@H](CCCCN)C(=O)N[C@@H](CCC(=O)O)C(=O)N[C@@H](CCCNC(=N)N)C(=O)N[C@@H](CCC(=O)O)C(=O)N[C@@H](CCC(N)=O)C(=O)N[C@@H](C)C(=O)N[C@@H](CCC(=O)O)C(=O)N[C@@H](CCCCN)C(=O)N[C@@H](CC(N)=O)C(=O)N[C@@H](CCCCN)C(=O)N[C@@H](CCCNC(=N)N)C(=O)N[C@H](C(=O)N[C@@H](CC(C)C)C(=O)N[C@@H](CCC(=O)O)C(=O)N[C@@H](CCCNC(=N)N)C(=O)N[C@H](C(N)=O)C(C)C)[C@@H](C)CC)C(=O)O [SEQ ID NO: 223] (H-IVLSLD[dV]PTKLK([γGlu-Palmitoyl])QKLLKQERQRKEREQAEKNKRILERV-NH2; N-terminus assumed)
Emax (CRF1R receptor): 57.3%

SMILES: CC[C@H](C)[C@H](N)C(=O)N[C@H](C(=O)N[C@@H](CC(C)C)C(=O)N[C@@H](CO)C(=O)N[C@@H](CC(C)C)C(=O)N[C@@H](CC(=O)O)C(=O)N[C@@H](C(=O)N1CCC[C@H]1C(=O)N[C@H](C(=O)N[C@@H](CCCCN)C(=O)N[C@@H](CC(C)C)C(=O)N[C@@H](CCCCNC(=O)COCCOCCNC(=O)COCCOCCNC(=O)CC[C@H](NC(=O)CCCCCCCCCCCCCCCCCCC(=O)O)C(=O)O)C(=O)N[C@@H](CCCCN)C(=O)N[C@@H](CCCCN)C(=O)N[C@@H](CC(C)C)C(=O)N[C@@H](CC(C)C)C(=O)N[C@@H](CCCCN)C(=O)N[C@@H](CCC(N)=O)C(=O)N[C@@H](CCC(=O)O)C(=O)N[C@@H](CCCNC(=N)N)C(=O)N[C@@H](CCCCN)C(=O)N[C@@H](CCCNC(=N)N)C(=O)NC(C)(C)C(=O)N[C@@H](CCC(=O)O)C(=O)N[C@@H](CCCNC(=N)N)C(=O)N[C@@H](CCC(=O)O)C(=O)N[C@@H](CCCCN)C(=O)N[C@@H](C)C(=O)N[C@@H](CCC(=O)O)C(=O)N[C@@H](CCCCN)C(=O)N[C@@H](C)C(=O)N[C@@H](C)C(=O)N[C@@H](CCCNC(=N)N)C(=O)N[C@H](C(=O)N[C@@H](CC(C)C)C(=O)N[C@@H](CCC(=O)O)C(=O)N[C@@H](CCCNC(=N)N)C(=O)N[C@H](C(N)=O)C(C)C)[C@@H](C)CC)[C@@H](C)O)C(C)C)C(C)C [SEQ ID NO: 224, IVLSLDvPTKLK*KKLLKQERKRAibEREKAEKAARILERV-NH2] (H-IVLSLD[dV]PTKLK([AEEA-AEEA-γGlu-C20 diacid])KKLLKQERKR[Aib]EREKAEKAARILERV-NH2; N-terminus assumed)
Emax (CRF1R receptor): 52.6%

Results, then the compound that gave them:

EC50 (human CRF2α receptor; [1]): 0.05 nM
EC50 (human CRF2α receptor; [2]): 1.74 nM
SMILES: CC[C@H](C)[C@H](N)C(=O)N[C@H](C(=O)N[C@@H](CC(C)C)C(=O)N[C@@H](CO)C(=O)N[C@@H](CC(C)C)C(=O)N[C@@H](CC(=O)O)C(=O)N[C@@H](C(=O)N1CCC[C@H]1C(=O)N[C@H](C(=O)N[C@@H](CCCCN)C(=O)N[C@@H](CC(C)C)C(=O)N[C@@H](CCCCNC(=O)CC[C@H](NC(=O)CCCCCCCCCCCCCCCCC(=O)O)C(=O)O)C(=O)N[C@@H](CCC(N)=O)C(=O)N[C@H](C(=O)N[C@@H](CC(C)C)C(=O)N[C@@H](CC(C)C)C(=O)N[C@@H](CCCCN)C(=O)N[C@@H](CCC(N)=O)C(=O)N[C@@H](C)C(=O)N[C@@H](CCCNC(=N)N)C(=O)N[C@@H](CCC(N)=O)C(=O)N[C@@H](CCCCN)C(=O)NC(C)(C)C(=O)N[C@@H](CCC(N)=O)C(=O)N[C@@H](CCCNC(=N)N)C(=O)N[C@@H](C)C(=O)N[C@@H](CCC(N)=O)C(=O)N[C@@H](C)C(=O)N[C@@H](CCC(=O)O)C(=O)N[C@@H](CCCCN)C(=O)N[C@@H](CC(N)=O)C(=O)N[C@@H](CCCCN)C(=O)N[C@@H](CCCNC(=N)N)C(=O)N[C@H](C(=O)N[C@@H](CC(C)C)C(=O)N[C@@H](CCC(=O)O)C(=O)N[C@@H](CCCNC(=N)N)C(=O)N[C@H](C(N)=O)C(C)C)[C@@H](C)CC)[C@@H](C)CC)[C@@H](C)CC)C(C)C)C(C)C [compound 180] (H-IVLSLD[dV]PIKLK([γGlu-C18 diacid])QILLKQARQK[Aib]QRAQAEKNKRILERV-NH2; N-terminus assumed)

EC50 (human CRF2α receptor; [1]): 1.18 nM
EC50 (human CRF2α receptor; [2]): 15.3 nM
SMILES: CC[C@H](C)[C@H](N)C(=O)N[C@H](C(=O)N[C@@H](CC(C)C)C(=O)N[C@@H](CO)C(=O)N[C@@H](CC(C)C)C(=O)N[C@@H](CC(=O)O)C(=O)N[C@@H](C(=O)N1CCC[C@H]1C(=O)N[C@H](C(=O)N[C@@H](CCCCN)C(=O)N[C@@H](CC(C)C)C(=O)N[C@@H](CCCCNC(=O)CC[C@H](NC(=O)CCCCCCCCCCCCCCCCC(=O)O)C(=O)O)C(=O)N[C@@H](CCC(N)=O)C(=O)N[C@H](C(=O)N[C@@H](CC(C)C)C(=O)N[C@@H](CC(C)C)C(=O)N[C@@H](CCCCN)C(=O)N[C@@H](CCC(N)=O)C(=O)N[C@@H](CCC(=O)O)C(=O)N[C@@H](CCCNC(=N)N)C(=O)N[C@@H](CCC(N)=O)C(=O)N[C@@H](CCCCN)C(=O)N[C@@H](CCCCN)C(=O)N[C@@H](CCC(N)=O)C(=O)N[C@@H](CCCNC(=N)N)C(=O)N[C@@H](CCC(N)=O)C(=O)N[C@@H](CCC(N)=O)C(=O)N[C@@H](C)C(=O)N[C@@H](CCC(=O)O)C(=O)N[C@@H](CCCCN)C(=O)N[C@@H](CC(N)=O)C(=O)N[C@@H](CCCCN)C(=O)N[C@@H](CCC(N)=O)C(=O)N[C@H](C(=O)N[C@@H](CC(C)C)C(=O)N[C@@H](C)C(=O)N[C@@H](CCC(N)=O)C(=O)N[C@H](C(N)=O)C(C)C)[C@@H](C)CC)[C@@H](C)CC)[C@@H](C)CC)C(C)C)C(C)C [compound 181] (H-IVLSLD[dV]PIKLK([γGlu-C18 diacid])QILLKQERQKKQRQQAEKNKQILAQV-NH2; N-terminus assumed)
